Assay results: patent US20030153621A1, “Use of 13-hode as a regulator of vascular biocompatibility and an inhibitor of cell hyperplasia” (priority 2000, published 2003)
Where two headings read alike, the source gives them in different places. Values belong to the compound of their own block, whether it stands above or below them.

How the values were obtained:
[1] = tested on: Sarcoma 180 tumors; details: given orally; cited from earlier work
[2] = Stability of 13-HODE in dosage forms (oil or ester carrier); type: physicochemical; details: dissolved in a triglyceride oil carrier or an ester
Method: A real problem is presented by the fact that active daily doses of 13-HODE are in the 50 to 1,000 μg/kg/day range. […] That translates into a […] dose for a 70 kg person. Since doses for humans are often considerably lower than doses for animals because of a weight/body surface area scaling, a daily dose of as little as 5 mg or less is really possible. Formulating an oily liquid is such small doses is a problem. It could be absorbed into tabletting materials and tabletted and coated, or micro-encapsulated by methods well known to those skilled in the art. […] Other triglyceride oils such as vegetable oil, including sunflower, safflower, soy, evening primrose, borage, coconut or palm oil, or cottonseed, rapeseed, olive, fish body or fish liver oils may all be used for this purpose. Particualrly useful esters for this purpose are esters of fatty acids with 16-26 carbon atoms and one or more double bonds in the chain.

[3] = tested on: VW intimal hyperplasia of injured carotid arteries; test: Intimal hyperplasia after carotid artery pressure injury in rabbits; type: in vivo, New Zealand white rabbits; details: for intimal hyperplasia: 1,000 μg/kg/day for 7 days
Method: (§1) New Zealand white rabbits (half males/half females; 2.5-2.9 kg) were used throughout. Rabbits were treated with 100, 400 or 1000 μg/kg/day of purified 13-HODE suspended in corn oil or ethyl-eicosapentaenoic acid (EPA), or with an equivolume of either suspending vehicle (total volume 1 ml) for 7 days. Serial blood samples were collected before, during and after treatment to assess the levels of 13-HODE in plasma. On day 7, the treatments were stopped. At that time, the rabbits were anaesthetised with a combination of Atravet, Ketamine, Vetrepham and glycopyrolate, given subcutaneously. Both carotid arteries of anaesthetised rabbits were isolated between 2 temporary ligatures, first by applying the proximal ligature, then allowing the blood to drain from the segment, and then applying the distal ligature. A 24-gauge angiocath attached to tubing filled with sterile saline and connected to a pressure manometer, was inserted into the isolated segment. Then the segment was filled with the saline to a pressure of 600 mm Hg which was maintained for 5 minutes. The pressure was relieved, and the angiocath and ligatures were removed, thereby allowing for blood flow restoration. Cessation of bleeding from the needle puncture site was achieved within 3 minutes without any manual manipulation. The incisions were sutured closed with 000 proline. The rabbits were injected intramuscularly with Temgesic to minimize any pain and with 12.5 mg Baytril as an antibiotic, and then allowed to recover. This injury procedure results in endothelial denudation and the exposure of a thrombogenic surface within 1 hour of restoration of blood flow, followed by SMC proliferation and intimal hyperplasia, which plateaus at 4 weeks and which is sustained for ±12 weeks (Buchanan MR, Brister SJ: 1998; Buchanan MR et al. 1999).
(§2) Two, four or twelve weeks later, the rabbits were re-anaesthetised and their injured carotid arteries were again isolated. Segments of injured and uninjured carotid artery were harvested and processed histologically to assess VW hyperplasia. Other VW segments and blood samples were collected and processed for VW and plasma 13-HODE levels.

[4] = Vessel wall 13-HODE levels in rabbits after oral 13-HODE; type: in vivo, New Zealand white rabbits
Method: as §1, with “The rabbits were injected intramuscularly with Temgesic to minimize any pain and with 12.5 mg Baytril as an antibiotic, and then allowed to recover. This injury procedure results in endothelial denudation and the exposure of a thrombogenic surface within 1 hour of restoration of blood flow, followed by SMC proliferation and intimal hyperplasia, which plateaus at 4 weeks and which is sustained for ±12 weeks (Buchanan MR, Brister SJ: 1998; Buchanan MR et al. 1999).” left out

[5] = Observation of hemorrhagic defect in the experimental animals; type: in vivo, rabbits; details: any of the experimental animals
Method: as §1, with “The rabbits were injected intramuscularly with Temgesic to minimize any pain and with 12.5 mg Baytril as an antibiotic, and then allowed to recover. This injury procedure results in endothelial denudation and the exposure of a thrombogenic surface within 1 hour of restoration of blood flow, followed by SMC proliferation and intimal hyperplasia, which plateaus at 4 weeks and which is sustained for ±12 weeks (Buchanan MR, Brister SJ: 1998; Buchanan MR et al. 1999).” left out

[6] = Plasma 13-HODE levels in rabbits after oral 13-HODE; type: in vivo, New Zealand white rabbits
Method: as §1, §2

[7] = human, in vivo; cited from earlier work
[8] = dose comparable to that used clinically; cited from earlier work
[9] = tested on: Platelet/injured VW interactions; details: dose comparable to that used clinically; cited from earlier work
[10] = tested on: intimal SMC hyperplasia; details: cited from earlier work
[11] = 3.2 gm daily (20 capsules) for 30 days; cited from earlier work
[12] = tested on: Platelet/injured VW interactions; details: 3.2 gm daily for 30 days; cited from earlier work
[13] = suspended in ethyl-EPA, all treatment levels

SMILES: CCCCC/C=C\C=C\C(O)CCCCCCCC(=O)O (stereo not shown) [9-HODE, 9-hydroxy-10(E)12(Z) octadecadienoic acid]
minimum effective dose for inhibition of tumour growth rate [1]: 55 mg/kg/day

stability of dosage form [2]: stable without degradation
VW 13-HODE levels ([4]; suspended in corn oil, measured 28 days after stopping the treatment): dose-related increase
absolute levels of VW 13-HODE versus corn oil vehicle [4, 13]: somewhat lower
hemorrhagic defect [5]: no detectable hemorrhagic defect
increase in the plasma 13-HODE levels ([6]; 100 μg/kg/day oral, 7 days, suspended in corn oil): three-fold
time to significantly elevated 13-HODE level in cell-free plasma ([6]; 1,000 μg/kg/day oral): ≤ 3 days
effect of increasing the dose on plasma 13-HODE levels ([6]; 1,000 μg/kg/day vs 100 μg/kg/day, corn oil): no further effect
time 13-HODE level in cell-free plasma remained elevated ([6]; 1,000 μg/kg/day, treatment stopped after 7 days): 4 weeks
time for plasma 13-HODE levels to return to almost control levels ([6]; after 7 day oral treatment, corn oil): 14 to 21 days
absolute levels of plasma 13-HODE versus corn oil vehicle [6, 13]: lower
SMILES: CCCCCC(O)/C=C/C=C\CCCCCCCC(=O)O (stereo not shown) [13-HODE, 13-hydroxyoctadeca-9Z, 11E-dienoic acid]
intimal VW hyperplasia ([3]; 100 μg/kg/day for 7 days, in corn oil or ethyl-EPA, p<0.001): significantly inhibited
intimal hyperplasia ([3]; 2 weeks after injury, placebo 18%): 8%
intimal hyperplasia ([3]; 4 weeks after injury, placebo 38%): 16%
intimal hyperplasia ([3]; 12 weeks after injury): > 3%

SMILES: CC(=O)Oc1ccccc1C(=O)O [ASA]
overall risk reduction (stroke, myocardial infarction, transient ischemic attacks) [7]: 25%

SMILES: OCCN(CCO)c1nc(N2CCCCC2)c2nc(N(CCO)CCO)nc(N3CCCCC3)c2n1 [Persantine, dipyridamole]
increase of VW 13-HODE [8]: 30 to 50%
decrease of platelet/injured VW interactions [9]: > 2 fold
SMC hyperplasia ([10]; 1 mg/kg/day for 7 days before injury, 4 weeks after VW injury): inhibited
platelet function ([10]; 1 mg/kg/day for 7 days): unchanged

SMILES: CCCCC/C=C\C/C=C\CCCCCCCC(=O)O [linoleic acid, Octa-deca-9Z, 12Z-dienoic acid]
increase of VW 13-HODE levels [11]: 2 fold
decrease of platelet/injured VW interactions [12]: > 2 fold
